The assay concerns IL-12. Nature of the assay: Human in vitro assay: inhibition of IL-12 production in IFNγ/LPS- or IFNγ/SAC-stimulated human PBMC or THP-1 cells (ELISA). It is filed as cell-based. Particulars: read-out: IC50 Range (representative in vitro IC50 data). The source says:
The biological activities of a heterocyclic compound can be evaluated by a number of cell-based assays. One of such assays can be conducted using cells from human peripheral blood mononuclear cells (PBMC) or human monocytic cell line (THP-1). The cells are stimulated with a combination of human interferon-γ (IFNγ) and lipopolysaccharide or a combination of IFNγ and Staphylococcus aureus Cowan I in the presence of a test compound. The level of inhibition of IL-12 production can be measured by determining the amount of p70 by using a sandwich ELISA assay with anti-human IL-12 antibodies. IC50 of the test compound can then be determined. Specifically, PBMC or THP-1 cells are incubated with the test compound. Cell viability was assessed using the bioreduction of MTS [3-(4,5-dimethylthiazol-2-yl)-5-(3-carboxymethoxyphenyl)-2-(4-sulfophenyl)-2H-tetrazolium](Promega, Madison, Wis.).
Human In Vitro Assay. Human PBMC were isolated by centrifugation using Ficoll-Paque (Pharmacia Biotech, Uppsala, Sweden) and prepared in RPMI medium supplemented with 10% fetal calf serum (FCS), 100 U/mL penicillin, and 100 μg/mL streptomycin. PBMC were plated in wells of a 96-well plate at a concentration of 5×10^5 cells/well, and primed by adding IFNγ (30 U/mL) for 22 h and stimulated by adding LPS (1 μg/mL), or by adding IFNγ (100 U/mL) and then stimulated by adding SAC (0.01%). A test pyrimidine compound was dissolved in DMSO, and added to wells of the 96-well plate. The final DMSO concentration was adjusted to 0.25% in all cultures, including the compound-free control. Human THP-1 cells were plated in wells, primed by adding IFNγ (100 U/mL) for 22 h and stimulated by adding SAC (0.025%) in the presence of different concentrations of the pyrimidine compound. Cell-free supernatants were taken 18 h later for measurement of cytokines. Cell viability was assessed using the bioreduction of MTS. Cell survival was estimated by determining the ratio of the absorbance in compound-treated groups versus compound-free control.
The supernatant was assayed for the amount of IL-12p40, IL-12p70, or IL-10 by using a sandwich ELISA with anti-human antibodies, i.e., a Human IL-12 p40 ELISA kit from R&D Systems (Berkeley, Calif.), and a Human IL-12 p70 or IL-10 ELISA kit from Endogen (Cambridge, Mass.). Assays were based on the manufacturer's instructions.
The biological activities of pyrimidine compounds were tested on human PBMC or THP-1 cells.
A general note: An ELISA detects its analyte on a solid surface through an enzyme-linked reagent.

Each structure is given as a SMILES string.

As for `NC(=O)c1cccc(NC(=O)c2cc(OCCN3CCOC3=O)nc(N3CCOCC3)n2)c1` [Compound 43, 2-Morpholin-4-yl-6-[2-(2-oxo-oxazolidin-3-yl)-ethoxy]-pyrimidine-4-carboxylic acid (3-carbamoyl-phenyl)-amide], the IC50 (as a rule, the concentration that gives 50% inhibition) is no less than 1 µM.
Next, `Cc1cccc(NC(=O)c2cc(OCCN3CCOC3=O)nc(N3CCOCC3)n2)c1` [Compound 44, 2-Morpholin-4-yl-6-[2-(2-oxo-oxazolidin-3-yl)-ethoxy]-pyrimidine-4-carboxylic acid m-tolylamide]: no less than 1 µM; `O=C(Nc1cc(-c2cccs2)[nH]n1)c1cc(OCCN2CCOCC2)nc(N2CCOCC2)n1` [Compound 45, 2-Morpholin-4-yl-6-(2-morpholin-4-yl-ethoxy)-pyrimidine-4-carboxylic acid (5-thiophen-2-yl-1H-pyrazol-3-yl)-amide]: no less than 1 µM; `CCc1cccc(NC(=O)c2cc(OCCN3CCOCC3)nc(N3CCOCC3)n2)c1` [Compound 46, 2-Morpholin-4-yl-6-(2-morpholin-4-yl-ethoxy)-pyrimidine-4-carboxylic acid (3-ethyl-phenyl)-amide]: no less than 1 µM.
For `O=C(Nc1cccc(Br)c1)c1cc(OCCN2CCOCC2)nc(N2CCOCC2)n1` [Compound 47, 2-Morpholin-4-yl-6-(2-morpholin-4-yl-ethoxy)-pyrimidine-4-carboxylic acid (3-bromo-phenyl)-amide] the value was no less than 1 µM; for `Cc1cc(NC(=O)c2cc(OCCN3CCOCC3)nc(N3CCOCC3)n2)no1` [Compound 48, 2-Morpholin-4-yl-6-(2-morpholin-4-yl-ethoxy)-pyrimidine-4-carboxylic acid (5-methyl-isoxazol-3-yl)-amide], no less than 1 µM.
Next, `CC(=O)Nc1ccccc1NC(=O)c1cc(OCCN2CCOCC2)nc(N2CCOCC2)n1` [Compound 49, 2-Morpholin-4-yl-6-(2-morpholin-4-yl-ethoxy)-pyrimidine-4-carboxylic acid (2-acetylamino-phenyl)-amide]: no less than 1 µM; `NS(=O)(=O)c1cccc(NC(=O)c2cc(OCCN3CCOCC3)nc(N3CCOCC3)n2)c1` [Compound 50, 2-Morpholin-4-yl-6-(2-morpholin-4-yl-ethoxy)-pyrimidine-4-carboxylic acid (3-sulfamoyl-phenyl)-amide]: no less than 1 µM.
In the case of `Cc1ccc(NC(=O)c2cc(N3CCOCC3)nc(N3CCOCC3)n2)cc1C` [Compound 51, 2,6-Di-morpholin-4-yl-pyrimidine-4-carboxylic acid (3,4-dimethyl-phenyl)-amide], the IC50 was less than 1 µM.
For the compound `NC(=O)c1cccc(NC(=O)c2cc(N3CCOCC3)nc(N3CCOCC3)n2)c1` [Compound 52, 2,6-Di-morpholin-4-yl-pyrimidine-4-carboxylic acid (3-carbamoyl-phenyl)-amide], the IC50 is no less than 1 µM.
For `CN(C)C(=O)c1cccc(NC(=O)c2cc(OCCN3CCOCC3)nc(N3CCOCC3)n2)c1` [Compound 53, 2-Morpholin-4-yl-6-(2-morpholin-4-yl-ethoxy)-pyrimidine-4-carboxylic acid (3-dimethylcarbamoyl-phenyl)-amide] the value was no less than 1 µM; for `O=C(c1cc(OCCN2CCOCC2)nc(N2CCOCC2)n1)n1ccc2ccccc21` [Compound 54, Indol-1-yl-[2-morpholin-4-yl-6-(2-morpholin-4-yl-ethoxy)-pyrimidin-4-yl]-methanone], no less than 1 µM.
As for `Cc1cccc(NC(=O)c2cc(OCCN3CCOCC3)nc(N3CCOCC3)n2)c1` [Compound 56, 2-Morpholin-4-yl-6-(2-morpholin-4-yl-ethoxy)-pyrimidine-4-carboxylic acid m-tolylamide], the IC50 is no less than 1 µM.
Next, `CN(C)c1ccc(NC(=O)c2cc(OCCN3CCOCC3)nc(N3CCOCC3)n2)cc1` [Compound 57, 2-Morpholin-4-yl-6-(2-morpholin-4-yl-ethoxy)-pyrimidine-4-carboxylic acid (4-dimethylamino-phenyl)-amide]: no less than 1 µM; `Cc1cccc(NC(=O)c2cc(N3CCOCC3)nc(OCCc3ccccn3)n2)c1` [Compound 62, 6-Morpholin-4-yl-2-(2-pyridin-2-yl-ethoxy)-pyrimidine-4-carboxylic acid m-tolylamide]: no less than 1 µM; `Cc1[nH]c2ccc(NC(=O)c3cc(N4CCOCC4)nc(OCCc4ccccn4)n3)cc2c1C` [Compound 63, 6-Morpholin-4-yl-2-(2-pyridin-2-yl-ethoxy)-pyrimidine-4-carboxylic acid (2,3-dimethyl-1H-indol-5-yl)-amide]: no less than 1 µM.
`Cc1ccc2nc(NC(=O)c3cc(N4CCOCC4)nc(OCCc4ccccn4)n3)sc2c1` [Compound 64, 6-Morpholin-4-yl-2-(2-pyridin-2-yl-ethoxy)-pyrimidine-4-carboxylic acid (6-methyl-benzothiazol-2-yl)-amide]: the IC50 was no less than 1 µM.
For `COc1ccc(CCOc2cc(C(=O)Nc3cccc(C)c3)cc(N3CCOCC3)n2)cc1OC` [Compound 65, 2-[2-(3,4-Dimethoxy-phenyl)-ethoxy]-6-morpholin-4-yl-N-m-tolyl-isonicotinamide] the value was no less than 1 µM.
For `Cc1[nH]c2ccc(NC(=O)c3cc(OCCN4CCOCC4)nc(N4CCOCC4)c3)cc2c1C` [Compound 66, N-(2,3-Dimethyl-1H-indol-5-yl)-2-morpholin-4-yl-6-(2-morpholin-4-yl-ethoxy)-isonicotinamide] the value was no less than 1 µM; for `Cc1cccc(NC(=O)Nc2cc(OCCc3ccccn3)nc(N3CCOCC3)n2)c1` [Compound 67, 1-[2-Morpholin-4-yl-6-(2-pyridin-2-yl-ethoxy)-pyrimidin-4-yl]-3-m-tolyl-urea], less than 1 µM.
For `Cc1cccc(NC(=O)Nc2cc(N3CCOCC3)nc(OCCc3ccccn3)n2)c1` [Compound 68, 1-[6-Morpholin-4-yl-2-(2-pyridin-2-yl-ethoxy)-pyrimidin-4-yl]-3-m-tolyl-urea] the value was no less than 1 µM; for `Cc1cccc(N(C)C(=O)Nc2cc(N3CCOCC3)nc(OCCc3ccccn3)n2)c1` [Compound 69, 1-Methyl-3-[6-morpholin-4-yl-2-(2-pyridin-2-yl-ethoxy)-pyrimidin-4-yl]-1-m-tolyl-urea], no less than 1 µM; for `Cc1cccc(NC(=O)Nc2nc(OCCc3ccccn3)cc(N3CCOCC3)n2)c1` [Compound 71, 1-[4-Morpholin-4-yl-6-(2-pyridin-2-yl-ethoxy)-pyrimidin-2-yl]-3-m-tolyl-urea], no less than 1 µM.
As to `O=C(Oc1ccc2[nH]ccc2c1)c1cc(OCCc2ccccn2)nc(N2CCOCC2)n1` [Compound 72, 2-Morpholin-4-yl-6-(2-pyridin-2-yl-ethoxy)-pyrimidine-4-carboxylic acid 1H-indol-5-yl ester], the IC50 was no less than 1 µM.
Next, `O=C(Nc1cc(OCCc2ccccn2)nc(N2CCOCC2)n1)c1ccc2[nH]ccc2c1` [Compound 73, 1H-Indole-5-carboxylic acid [2-morpholin-4-yl-6-(2-pyridin-2-yl-ethoxy)-pyrimidin-4-yl]-amide]: no less than 1 µM; `O=C(Nc1cc(N2CCOCC2)nc(OCCc2ccccn2)n1)c1ccc2[nH]ccc2c1` [Compound 74, 1H-Indole-5-carboxylic acid [6-morpholin-4-yl-2-(2-pyridin-2-yl-ethoxy)-pyrimidin-4-yl]-amide]: no less than 1 µM.

These data come from patent US20060223996A1, “IL-12 modulatory compounds” (Synta Pharmaceuticals Corp., priority 2004, published 2006).
